{
  "source": "patent US4910017A",
  "about": "“New compounds WF 2015 A and B” (Fujisawa Pharmaceutical Company, Ltd., priority 1987, dated 1990)",
  "key": {"mouse lymphoma EL-4 cell": {"test_system": "mouse lymphoma EL-4 cell", "experiment": "TEST 2: in vitro cytotoxicity of WF 2015, EL-4 cells", "format": "cell-based", "settings": "48 hours incubation, 37° C.", "protocol": "(§1) Human lung adenocarcinoma A549 cell and mouse lymphoma EL-4 cell were used in this study. A549 cells were propagated as monolayer culture in Dulbecco's medium supplemented with 10% heat inactivated fetal bovine serum (FBS), penicillin G (60 μg/ml) and streptomycin (20 μg/ml) and harvested by trypsinization. EL-4 cells were maintained in RPMI medium supplemented with 10% FBS and the antibiotics in culture flasks.\n(§2) Exponentially growing cells of A 549 or EL-4, which harvested from the cultures, were suspended in flask in the appropriate medium (Dulbecco's or RPMI medium supplemented with 10% FBS and antibiotics) at a concentration of 2×10^4 cells/ml or 2×10^5 cells/ml. respectively. Cells were treated with the graded doses of WF 2015 in plastic tissue culture dishes.\n(§3) Concentration of the substance required for 50% inhibition of cell growth (IC50 value, μg/ml) was determined by plotting the logarithm of the drug concentration versus the growth rate (percentage of control) of the treated cells after 120 hours incubation for A 549 cells and 48 hours incubation for EL-4 cells at 37° C. in humidified atmosphere of 5% carbon dioxide."}, "[1]": {"test_system": "C57BL/6 responder cells (mixed lymphocyte reaction)", "experiment": "TEST 4: suppression of in vitro mixed lymphocyte reaction (MLR)", "format": "cell-based, mouse (C57BL/6, BALB/C)", "settings": "4080 min", "protocol": "The MLR tests were carried out in microtiter plates, with each well containing specified concentration of WF 2015 A and 5×10^5 C57BL/6 responder cells (H-2^b), 5×10^5 mitomycin C treated (25 μg/ml mitomycin C at 37° C. for 30 minutes) BALB/C stimulator cells (H-2^d) in 0.2 ml RPMI 1640 medium, supplemented with 10% fetal calf serum, 2mM glutamine, 3×10^-5 M 2-mercaptoethanol, 24 mM sodium bicarbonate, penicillin (50 unit/ml) and streptomycin (50 μ/ml). The cells were incubated at 37° C. in a humidified atmosphere of 5% CO2 :95% air for 68 hours and pulsed with ^3 H-thymidine (0.5 μCi) 4 hours before the cells were collected. Radio-activity of the cells was assayed by B-counter. From the resultant data, MLR suppression (%) was calculated."}, "ICR strain mice": {"test_system": "ICR strain mice", "experiment": "TEST 3: acute toxicity of WF 2015 in mice", "format": "in vivo, mouse (ICR)", "settings": "100 mg/kg once a day for 5 days, 5 female ICR mice"}, "Human MX-1 mammary": {"test_system": "Human MX-1 mammary", "experiment": "TEST 5: antitumor activity in vivo (human MX-1 mammary in nude mice)", "design": "species or system human tumor in BALB/c nu/nu mice", "settings": "day 0→4, 7→11, 14→18, evaluated day 21, n = 8", "protocol": "Human MX-1 mammary (each fragment, 3×3×3 mm), maintained s.c. by serial passage in female BALB/c nu/nu mice aged 6 weeks was implanted s.c. to female BALB/c nu/nu mice on day 0, and WF 2015 A or vehicle were given i.v. to the mice once a day on specified days (day0→4, day 7→11 and day 14→18).\nTumor weight was calculated as follows: (Tumor length and width were measured by caliper.)\nTumor weight (mg)=1/2×a×b^2, where a represents length and b represents width (mm).\nTumor weights (initial) and (last) were calculated on the first injection day (just before dosing) and on day 21, (the last evaluation day), respectively.\nEight mice were used for each test group and each vehicle-treated control group, respectively.\nDrug efficacy was expressed as tumor growth inhibition (%)."}, "[2]": {"test_system": "Human lung adenocarcinoma A549 cell", "experiment": "TEST 2: in vitro cytotoxicity of WF 2015, A549 cells", "format": "cell-based", "settings": "120 hours incubation, 37° C.", "protocol": "as §1, §2, §3"}, "[3]": {"test_system": "Mouse fibrosarcoma Meth A", "experiment": "TEST 1: antitumor activity of WF 2015 A in experimental tumor system in mice (Meth A)", "format": "in vivo, mouse (Balb/c)", "settings": "at 14 days, mean ± S.E., n = 5, Control 1136.6 ± 138.3", "protocol": "The antitumor activity of WF 2015 A was determined in experimental tumor system in mice.\nMouse fibrosarcoma Meth A was implanted intradermally into Balb/c mice (female, 8 weeks age) at an inoculum size of 1×10^5 cells per mouse. Twenty-four hours after the implantation of tumor cells, graded doses of WF 2015 A were administered to the mice intravenously. Treatments were once a day on day 1, 2, 3, 4 and 7, 8, 9, 10 after the tumor inoculation. Control animals received intravenous doses of physiological saline solution. The injection volume was 0.2 ml in all experiments. Five mice were used for each experimental group.\nTumor weight at 14 days after administration, as derived from caliper measurements of the length and width of tumors, was calculated by the formula: Tumor weight (mg)=1/2×a×b^2, where a represents the length and b represents the width (mm)."}, "[4]": {"experiment": "Solubility of WF 2015 A and B (physicochemical properties)"}},
  "data": [
    {"smiles": "CO[C@@H]1[C@H](OC(=O)/C=C/C(O)C(C)O)CC[C@]2(CO2)[C@H]1[C@@]1(C)O[C@@H]1CC=C(C)C", "note": "(some centres unmarked) [WF 2015 A]", "values": [
      {"measurement": "IC50 value (concentration required for 50% inhibition of cell growth)", "setting": "mouse lymphoma EL-4 cell", "value": 0.65, "unit": "ng/mL"},
      {"measurement": "MLR suppression (%)", "setting": "[1]; 0.0066 ng/ml", "value": 0.0, "unit": "%"},
      {"measurement": "MLR suppression (%)", "setting": "[1]; 0.02 ng/ml", "value": 0.4, "unit": "%"},
      {"measurement": "MLR suppression (%)", "setting": "[1]; 0.066 ng/ml", "value": 8.5, "unit": "%"},
      {"measurement": "MLR suppression (%)", "setting": "[1]; 0.2 ng/ml", "value": 9.4, "unit": "%"},
      {"measurement": "MLR suppression (%)", "setting": "[1]; 6.6 ng/ml", "value": 49.1, "unit": "%"},
      {"measurement": "MLR suppression (%)", "setting": "[1]; 20 ng/ml", "value": 86.2, "unit": "%"},
      {"measurement": "MLR suppression (%)", "setting": "[1]; 40 ng/ml", "value": 88.0, "unit": "%"},
      {"measurement": "MLR suppression (%)", "setting": "[1]; 161 ng/ml", "value": 87.3, "unit": "%"},
      {"measurement": "MLR suppression (%)", "setting": "[1]; 1,250 ng/ml", "value": 89.0, "unit": "%"},
      {"measurement": "MLR suppression (%)", "setting": "[1]; 10,000 ng/ml", "value": 94.4, "unit": "%"},
      {"measurement": "Acute toxicity, abnormal symptom of the mice", "setting": "ICR strain mice", "value": "no abnormal symptom of the mice was observed"},
      {"measurement": "Tumor Growth Inhibition (%)", "setting": "Human MX-1 mammary; 10 mg/kg i.v. once a day", "value": 41.2, "unit": "%"},
      {"measurement": "Tumor Growth Inhibition (%)", "setting": "Human MX-1 mammary; 30 mg/kg i.v. once a day", "value": 62.6, "unit": "%"},
      {"measurement": "IC50 value (concentration required for 50% inhibition of cell growth)", "setting": "[2]", "value": 0.3, "unit": "ng/mL"},
      {"measurement": "Tumor weight", "setting": "[3]; 1.0 mg/kg i.v. once a day on day 1, 2, 3, 4 and 7, 8, 9, 10", "value": "864 ± 108.7", "unit": "mg"},
      {"measurement": "Tumor weight", "setting": "[3]; 3.3 mg/kg i.v. once a day on day 1, 2, 3, 4 and 7, 8, 9, 10", "value": "682 ± 131.5", "unit": "mg"},
      {"measurement": "Tumor weight", "setting": "[3]; 10 mg/kg i.v. once a day on day 1, 2, 3, 4 and 7, 8, 9, 10", "value": "27.7 ± 105.6", "unit": "mg"},
      {"measurement": "Solubility", "setting": "[4]; Chloroform, methanol, acetone, ethanol", "value": "Soluble"},
      {"measurement": "Solubility", "setting": "[4]; n-Hexane, water", "value": "Insoluble"}
    ]}
  ]
}
